{"source": "paper PMC8699473", "about": "“An Easily Expandable Multi-Drug LC-MS Assay for the Simultaneous Quantification of 57 Oral Antitumor Drugs in Human Plasma” (Cancers, 2021)", "key": {"[1]": {"experiment": "Reference trough level (cmin) at steady state", "type": "in vivo, human", "details": "minimum steady-state plasma concentration, calculated based on cmax; ref supplement [7], [2,5,24], [51]"}, "[2]": {"experiment": "Long-term stability in spiked pooled human plasma"}, "[3]": {"experiment": "Freeze-thaw stability in spiked pooled human plasma", "type": "physicochemical"}, "[4]": {"experiment": "Short-term stability in spiked pooled human plasma (bench-top, 4 °C, 56 °C)"}, "[5]": {"experiment": "Autosampler stability of ready for injection samples", "type": "physicochemical, human"}}, "data": [{"compound": "O=c1[nH]c(=O)n([C@H]2C[C@H](O)[C@@H](CO)O2)cc1C(F)(F)F", "note": "[Trifluridine]", "values": [{"measurement": "cmin", "setting": "[1]", "value": 1135, "unit": "ng/mL"}, {"measurement": "Long-term stability, 1 month, -20°C Accuracy [%]", "setting": "[2]; validation standard 2xLLOV", "value": 112.0, "unit": "%"}, {"measurement": "Long-term stability, 1 month, -80°C Accuracy [%]", "setting": "[2]; validation standard 2xLLOV", "value": 105.0, "unit": "%"}, {"measurement": "Long-term stability, 2 month, -20°C Accuracy [%]", "setting": "[2]; validation standard 2xLLOV", "value": 107.3, "unit": "%"}, {"measurement": "Long-term stability, 2 month, -80°C Accuracy [%]", "setting": "[2]; validation standard 2xLLOV", "value": 104.3, "unit": "%"}, {"measurement": "Long-term stability, 3 month, -20°C Accuracy [%]", "setting": "[2]; validation standard 2xLLOV", "value": 103.6, "unit": "%"}, {"measurement": "Long-term stability, 3 month, -80°C Accuracy [%]", "setting": "[2]; validation standard 2xLLOV", "value": 99.5, "unit": "%"}, {"measurement": "Long-term stability, 6 weeks, 4°C, without daylight Accuracy [%]", "setting": "[2]; validation standard 2xLLOV", "value": 68.8, "unit": "%"}, {"measurement": "Long-term stability, 1 month, -20°C Accuracy [%]", "setting": "[2]; validation standard LLOV", "value": 97.0, "unit": "%"}, {"measurement": "Long-term stability, 1 month, -80°C Accuracy [%]", "setting": "[2]; validation standard LLOV", "value": 95.2, "unit": "%"}, {"measurement": "Long-term stability, 2 month, -20°C Accuracy [%]", "setting": "[2]; validation standard LLOV", "value": 79.5, "unit": "%"}, {"measurement": "Long-term stability, 2 month, -80°C Accuracy [%]", "setting": "[2]; validation standard LLOV", "value": 70.3, "unit": "%"}, {"measurement": "Long-term stability, 3 month, -20°C Accuracy [%]", "setting": "[2]; validation standard LLOV", "value": 89.9, "unit": "%"}, {"measurement": "Long-term stability, 3 month, -80°C Accuracy [%]", "setting": "[2]; validation standard LLOV", "value": 85.8, "unit": "%"}, {"measurement": "Long-term stability, 6 weeks, 4°C, without daylight Accuracy [%]", "setting": "[2]; validation standard LLOV", "value": 49.1, "unit": "%"}, {"measurement": "Long-term stability, 1 month, -20°C Accuracy [%]", "setting": "[2]; validation standard MOV", "value": 99.4, "unit": "%"}, {"measurement": "Long-term stability, 1 month, -80°C Accuracy [%]", "setting": "[2]; validation standard MOV", "value": 94.6, "unit": "%"}, {"measurement": "Long-term stability, 2 month, -20°C Accuracy [%]", "setting": "[2]; validation standard MOV", "value": 109.3, "unit": "%"}, {"measurement": "Long-term stability, 2 month, -80°C Accuracy [%]", "setting": "[2]; validation standard MOV", "value": 104.7, "unit": "%"}, {"measurement": "Long-term stability, 3 month, -20°C Accuracy [%]", "setting": "[2]; validation standard MOV", "value": 92.2, "unit": "%"}, {"measurement": "Long-term stability, 3 month, -80°C Accuracy [%]", "setting": "[2]; validation standard MOV", "value": 90.8, "unit": "%"}, {"measurement": "Long-term stability, 6 weeks, 4°C, without daylight Accuracy [%]", "setting": "[2]; validation standard MOV", "value": 59.0, "unit": "%"}, {"measurement": "Long-term stability, 1 month, -20°C Accuracy [%]", "setting": "[2]; validation standard ULOV", "value": 93.7, "unit": "%"}, {"measurement": "Long-term stability, 1 month, -80°C Accuracy [%]", "setting": "[2]; validation standard ULOV", "value": 88.8, "unit": "%"}, {"measurement": "Long-term stability, 2 month, -20°C Accuracy [%]", "setting": "[2]; validation standard ULOV", "value": 98.4, "unit": "%"}, {"measurement": "Long-term stability, 2 month, -80°C Accuracy [%]", "setting": "[2]; validation standard ULOV", "value": 95.5, "unit": "%"}, {"measurement": "Long-term stability, 3 month, -20°C Accuracy [%]", "setting": "[2]; validation standard ULOV", "value": 82.1, "unit": "%"}, {"measurement": "Long-term stability, 3 month, -80°C Accuracy [%]", "setting": "[2]; validation standard ULOV", "value": 79.9, "unit": "%"}, {"measurement": "Long-term stability, 6 weeks, 4°C, without daylight Accuracy [%]", "setting": "[2]; validation standard ULOV", "value": 27.1, "unit": "%"}, {"measurement": "Freeze-Thaw Accuracy [%]", "setting": "[3]; validation standard 2xLLOV", "value": 101.6, "unit": "%"}, {"measurement": "Freeze-Thaw Accuracy [%]", "setting": "[3]; validation standard LLOV", "value": 80.9, "unit": "%"}, {"measurement": "Freeze-Thaw Accuracy [%]", "setting": "[3]; validation standard MOV", "value": 94.4, "unit": "%"}, {"measurement": "Freeze-Thaw Accuracy [%]", "setting": "[3]; validation standard ULOV", "value": 91.6, "unit": "%"}, {"measurement": "Short-time stability (1h, 56°C) Accuracy [%]", "setting": "[4]; validation standard 2xLLOV", "value": -6.6, "unit": "%"}, {"measurement": "Short-time stability (24h, 4°C, without daylight) Accuracy [%]", "setting": "[4]; validation standard 2xLLOV", "value": 103.5, "unit": "%"}, {"measurement": "Short-time stability (24h, RT, with daylight) Accuracy [%]", "setting": "[4]; validation standard 2xLLOV", "value": 72.7, "unit": "%"}, {"measurement": "Short-time stability (24h, RT, without daylight) Accuracy [%]", "setting": "[4]; validation standard 2xLLOV", "value": 76.2, "unit": "%"}, {"measurement": "Short-time stability (1h, 56°C) Accuracy [%]", "setting": "[4]; validation standard LLOV", "value": -89.2, "unit": "%"}, {"measurement": "Short-time stability (24h, 4°C, without daylight) Accuracy [%]", "setting": "[4]; validation standard LLOV", "value": 83.6, "unit": "%"}, {"measurement": "Short-time stability (24h, RT, with daylight) Accuracy [%]", "setting": "[4]; validation standard LLOV", "value": 45.6, "unit": "%"}, {"measurement": "Short-time stability (24h, RT, without daylight) Accuracy [%]", "setting": "[4]; validation standard LLOV", "value": 36.1, "unit": "%"}, {"measurement": "Short-time stability (1h, 56°C) Accuracy [%]", "setting": "[4]; validation standard MOV", "value": 28.1, "unit": "%"}, {"measurement": "Short-time stability (24h, 4°C, without daylight) Accuracy [%]", "setting": "[4]; validation standard MOV", "value": 96.3, "unit": "%"}, {"measurement": "Short-time stability (24h, RT, with daylight) Accuracy [%]", "setting": "[4]; validation standard MOV", "value": 78.0, "unit": "%"}, {"measurement": "Short-time stability (24h, RT, without daylight) Accuracy [%]", "setting": "[4]; validation standard MOV", "value": 75.3, "unit": "%"}, {"measurement": "Short-time stability (1h, 56°C) Accuracy [%]", "setting": "[4]; validation standard ULOV", "value": 23.2, "unit": "%"}, {"measurement": "Short-time stability (24h, 4°C, without daylight) Accuracy [%]", "setting": "[4]; validation standard ULOV", "value": 85.5, "unit": "%"}, {"measurement": "Short-time stability (24h, RT, with daylight) Accuracy [%]", "setting": "[4]; validation standard ULOV", "value": 66.9, "unit": "%"}, {"measurement": "Short-time stability (24h, RT, without daylight) Accuracy [%]", "setting": "[4]; validation standard ULOV", "value": 67.3, "unit": "%"}, {"measurement": "Autosampler (24h, 4°C) Accuracy [%]", "setting": "[5]; validation standard 2xLLOV", "value": 117.8, "unit": "%"}, {"measurement": "Autosampler (72h, 4°C) Accuracy [%]", "setting": "[5]; validation standard 2xLLOV", "value": 107.4, "unit": "%"}, {"measurement": "Autosampler (24h, 4°C) Accuracy [%]", "setting": "[5]; validation standard LLOV", "value": 97.0, "unit": "%"}, {"measurement": "Autosampler (72h, 4°C) Accuracy [%]", "setting": "[5]; validation standard LLOV", "value": 86.9, "unit": "%"}, {"measurement": "Autosampler (24h, 4°C) Accuracy [%]", "setting": "[5]; validation standard MOV", "value": 113.1, "unit": "%"}, {"measurement": "Autosampler (72h, 4°C) Accuracy [%]", "setting": "[5]; validation standard MOV", "value": 102.7, "unit": "%"}, {"measurement": "Autosampler (24h, 4°C) Accuracy [%]", "setting": "[5]; validation standard ULOV", "value": 104.4, "unit": "%"}, {"measurement": "Autosampler (72h, 4°C) Accuracy [%]", "setting": "[5]; validation standard ULOV", "value": 98.4, "unit": "%"}]}]}
